Values of other authors as cited in patent publication US11311608B2, “Methods for treating breast and other cancers by targeting argininosuccinate synthetase 1-deficiency” (CITY OF HOPE, priority 2013, dated 2022).

Conditions: versus arginase

With Arginine deiminase as the substance, how does the “effectiveness at depleting arginine from the environment relative to arginase” value read?
The value was 300 fold.
